We go through 6 compounds from patent US20030144237A1, “Use of inhibition of a gas6 function or of a gas6 receptor for preventing and treating a cardiovascular disease” (priority 2000, published 2003).

The test system of one assay is Gas6+/+ platelets. The assay can be described thus: Platelet ATP release (dense granule secretion), Lumi-aggregometer, Gas6+/+ platelets. It is filed as cell-based, mice. Further details: unit not given here. The conditions noted are these: mean±SEM of three experiments. Here is the method:
(§1) Platelet aggregation and, ATP secretion were measured in an optical Chronolog Lumi-aggregometer (Coulter Electronics Ltd), using 280 μl PRP, adjusted to a concentration of 250,000 platelets/μl with PPP as a diluent. Platelet aggregation was measured as described in example 4. Platelet ATP release was monitored by adding firely luciferase and luciferin to all samples and comparing luminescence created by platelet ATP release to that generated by addition of an ATP standard (Chrono-Lume, Kordia). Aggregation and ATP release in response to collagen (equine collagen from Hormon Chemie), ADP, or the thromboxane A2 mimetic U46619 were studied. Platelet aggregation and ATP secretion in response to thrombin were performed with washed platelets in an optical Chronolog Lumi-aggregometer as described above.

The subject of assay [1] is Platelets from Gas6+/+ mice. The assay can be described thus: Platelet aggregation (turbidimetric, Chronolog aggregometer), Gas6+/+ platelets. It is filed as cell-based. The conditions noted are these: for platelet aggregation in response to PMA, A23187 or thrombin: FIG. 2, thrombin with washed platelets; for platelet aggregation in response to agonist (dose dependence): platelet-rich plasma, FIG. 1a-j. Here is the method: (§2) Blood was centrifuged at 100 g for 10 minutes, allowing separation of platelet-rich plasma (PRP). Platelet-poor plasma (PPP) was obtained by centrifugation of the remaining blood at 2,000 g for 10 minutes. PRP and PPP were pooled from four Gas6^−/− or Gas6^+/+ mice. Platelet aggregation was measured turbidimetrically in an optical Chronolog aggregometer (model 490, Coulter Electronics Ltd), using 280 μl PRP, adjusted to a concentration of 250,000 platelets/μl with PPP as a diluent. PPP also served as 100% reference for aggregation. Aggregation in response to collagen (equine collagen from Hormon Chemie), ADP or the thromboxane A2 mimetic U46619 was studied.
(§3) Aggregation in response to thrombin was performed with washed platelets. […] Apyrase was added to PRP at a final concentration of 1 u/ml. Platelets were then washed by adding 2 volumes ACD and pelleted by centrifugation at 2,000 g for 10 minutes. Platelet pellet was resuspended in Tyrode's buffer containing 1% BSA and final platelet suspension was adjusted to 200,000 platelets/μl and kept at 37° C. Platelet aggregation was measured with an optical Chronolog aggregometer as described above.

For the next assay, the system named is Gas6−/− platelets. The assay can be described thus: Platelet ATP release (dense granule secretion), Lumi-aggregometer, Gas6−/− platelets. The class given is cell-based, mice. Further details: unit not given here. The conditions noted are these: mean±SEM of three experiments. The procedure: as §1
Assay [2] concerns platelets from Gas6−/− mice. The assay can be described thus: Platelet aggregation (turbidimetric, Chronolog aggregometer), Gas6−/− platelets. The conditions noted are these: for platelet aggregation in response to PMA, A23187 or thrombin: FIG. 2, thrombin with washed platelets; for irreversible platelet aggregation at higher agonist concentrations: ADP 50 μM, collagen 5-15 μg/ml, U46619 100 μM; for irreversible platelet aggregation at low agonist concentrations: ADP <10 μM, collagen 2 μg/ml, U46619 10 μM, only shape change. The class given is cell-based. Here is the method: as §2, §3

Where [3] appears, read: agonist 8 μM, platelet-rich plasma.
The mark [4] stands for this setting: agonist 20 μM, platelet-rich plasma.
[5] abbreviates: agonist 50 μM, platelet-rich plasma.
Where [6] appears, read: agonist 100 μM, platelet-rich plasma.
[7] abbreviates: agonist 10 μg/ml, platelet-rich plasma.
Setting [8] is: agonist 1 U/ml, washed platelets.

With `CNc1ccc2oc(C[C@H]3O[C@@]4(CC[C@H]3C)O[C@H]([C@H](C)C(=O)c3ccc[nH]3)[C@H](C)C[C@H]4C)nc2c1C(=O)O` [A23187], the ATP release in the assay on Gas6+/+ platelets (setting [3]) was determined as 9.2 ± 3.1; in the assay on Gas6−/− platelets (setting [3]), 7.3 ± 3.0. Also, the “platelet aggregation in response to PMA, A23187 or thrombin” value (shortened to “platelet aggregation in response to PMA”) in assay [1] and in assay [2] was “aggregated normally” throughout.

As to `Nc1ncnc2c1ncn2[C@@H]1O[C@H](COP(=O)(O)OP(=O)(O)O)[C@@H](O)[C@H]1O` [ADP, adenosine 5′-diphosphate], the ATP release worked out at 0.8 ± 0.1 with Gas6+/+ platelets (setting [4]), 2.6 ± 0.8 in the assay with Gas6+/+ platelets (setting [5]), 0.2 ± 0.1 with Gas6−/− platelets (setting [4]) and 1.3 ± 0.3 in the assay on Gas6−/− platelets (setting [5]). Also, the “platelet aggregation in response to agonist (dose dependence)” value (“platelet aggregation … (dose dependence)” for short) in assay [1] was “dose-dependently aggregated”. Also, in assay [2], the “irreversible platelet aggregation at higher agonist concentrations” value was “induced irreversible aggregation”. Further, the “irreversible platelet aggregation at low agonist concentrations” value in assay [2] is recorded as “failed to irreversibly aggregate”.

Regarding `CCCCCCCCCCCCCC(=O)O[C@@H]1[C@@H](C)[C@@]2(O)[C@@H](C=C(CO)C[C@]3(O)C(=O)C(C)=C[C@@H]23)[C@@H]2C(C)(C)[C@]12OC(C)=O` [PMA, phorbol-12-myristyl-13-acetate], the ATP release came to 2.3 ± 0.4 in the assay on Gas6+/+ platelets (setting [6]) and 1.9 ± 0.6 with Gas6−/− platelets (setting [6]). The “platelet aggregation in response to PMA” value in assay [1] and in assay [2] was “aggregated normally” throughout.

For the compound `CCCCC[C@H](O)/C=C/[C@@H]1[C@@H](C/C=C\CCCC(=O)O)[C@H]2CO[C@@H]1C2` [U46619], the ATP release in the assay on Gas6+/+ platelets (agonist 10 μM, platelet-rich plasma) came to 6.5 ± 1.5; in the assay with Gas6+/+ platelets (setting [6]) it was 8.2 ± 2.0; with Gas6−/− platelets (setting [6]), 7.6 ± 2.3. In addition, the “platelet aggregation … (dose dependence)” value in assay [1] was “dose-dependently aggregated”. Moreover, in assay [2], the “irreversible platelet aggregation at higher agonist concentrations” value is given as “induced irreversible aggregation”. Moreover, the “irreversible platelet aggregation at low agonist concentrations” value in assay [2] is reported as “failed to irreversibly aggregate”.

For Collagen, the ATP release is recorded as 1.8 ± 0.3 with Gas6+/+ platelets (agonist 1 μg/ml, platelet-rich plasma); 10 ± 1.0 in the assay on Gas6+/+ platelets (setting [7]); 11 ± 0.8 in the assay with Gas6−/− platelets (setting [7]). Also, the “platelet aggregation … (dose dependence)” value in assay [1] is given as “dose-dependently aggregated”. For the same compound, the “irreversible platelet aggregation at higher agonist concentrations” value in assay [2] is “induced irreversible aggregation”. The “irreversible platelet aggregation at low agonist concentrations” value in assay [2] is “failed to irreversibly aggregate”.

Take Thrombin: the ATP release in the assay with Gas6+/+ platelets (setting [8]) stood at 17 ± 1.6; in the assay on Gas6−/− platelets (setting [8]), 11 ± 1.2. Moreover, the “platelet aggregation in response to PMA” value in assay [1] and in assay [2] was “stimulated platelet aggregation comparably in both genotypes” each time.
